Measurements as given in US4454290A, “Stevioside analogs” (Dynapol, priority 1981, dated 1984).
Where a name gives a salt, the structure may show the parent alone.

Key:
[1] = Taste test by a group of volunteers / sensory comparison; type: in vivo; conditions: for Pm, potency compared to sucrose = 1, molar basis / Pw, potency compared to sucrose = 1, weight basis / Taste Character, Bitter / Taste Character, Other / Taste Character, Salty / Taste Character, Sour / Taste Character, Sweet / Taste Character, Sweet/bitter, other: 12 judgements, stevioside 500 ppm, Example 1 534 ppm, saccharin 330 ppm; for taste of the material: concentration not given
Procedure: Steviolbioside, 3-sulfopropyl ester, potassium salt prepared in Part B. was dissolved in distilled water at a concentration of 0.2 wt% and tasted by a group of volunteers. […] The solution was diluted to 0.0534 wt% and retasted.

[2] = as above; type: in vivo; conditions: for Ip, sample intensity relative to 10% sucrose: mean value(2 Sm), 12 judgements, stevioside 500 ppm, Example 1 534 ppm, saccharin 330 ppm
[3] = Stability test: anaerobic incubation with fresh rat cecal contents, 37° C.; type: in vitro ADME
Procedure: An important property of these stevioside analogs is their stability and resistance to conversion to steviol at the conditions of the mammalian gastrointestinal tract. […] At these conditions, no degradation to steviol occurs to a limit of detection of 0.13%.
Steviolbioside, 3-sulfopropyl ester, potassium salt prepared in Part B. was incubated anaerobically for three days at 37° C. with 5 wt% fresh rat cecal contents, at concentrations of 0.25, 0.5, and 1.0 mg/ml in sterile Krebs-Ringer 0.25M phosphate buffer (pH 7.4) containing 0.25 mg/ml dithiothreitol and 0.25 mg/ml α-D-glucose. […] No steviol (Rf =0.95; tR =31.3 min) was detected. After 3 days the bacterial cells were sedimented by centrifugation. The sediment was extracted (THF), as was the supernatant, after lyophilization. […] With a detection limit of […], as little as 0.03 and 0.13 percent degradation to steviol could have been detected for the sediment and supernatant fractions, respectively.

[4] = Use in comestibles (taste of sweetened beverages and gelatin); type: in vivo
Procedure: Based on the results of Part D, one can employ the compound of Part B as a sweetener for comestibles. In exemplary uses 0.08% by weight of the compound is dissolved in an unsweetened cola beverage, a like concentration of the compound is added to an unsweetened lemonade and to coffee. […] In two other cases, 0.04% by weight is added to coffee along with 0.02% by weight of saccharin and 3% by weight of sucrose, respectively. […] B.
Cups of coffee are prepared: To each is added 500 ppm by weight, basis solution, of one of each of the sweeteners prepared in Examples II-VIII. The coffees present a sweetened taste when sampled.
Gelatin, food color and fruit flavor are dissolved in water at levels suitable for forming a jelled food product. The solution is not sweet. The materials of Claims II-VIII are each added to separate samples in amounts of 600 ppm and the samples are cast into jelled products. The resulting gelatin products are sweet.

ATP synthetase = conditions: in cell mitochondria; Vignais 1966; cited from earlier work
[5] = likelihood suggested by Wingard et al., 1980; cited from earlier work
[6] = Dorfman et al.; cited from earlier work
[7] = Bridel et al., cited from earlier work
[8] = likelihood suggested by Wingard et al., 1980; cited from earlier work; remark: listed apart in the source
[9] = Wingard et al., Experientia; cited from earlier work
[10] = 1000 ppm by weight in distilled water
[11] = compared with material of Example I

Compound | Pm, potency compared to sucrose = 1, molar basis [1] | Pw, potency compared to sucrose = 1, weight basis [1] | Taste Character, Bitter [1] | Taste Character, Other [1] | Taste Character, Salty [1] | Taste Character, Sour [1] | Taste Character, Sweet [1] | Taste Character, Sweet/bitter, other [1] | Ip, sample intensity relative to 10% sucrose [2] | taste of the material [1] | further results
O=C1NS(=O)(=O)c2ccccc21 [Saccharin, saccharin, reference compound] | 180(20) | 300(30) | 12(8) % | 3(2) % | 0(0) % | 0(0) % | 85(6) % | 85/15 | 0.98(0.09) |  | 
C=C1C[C@@]23CC[C@H]4[C@@](C)(CCC[C@@]4(C)C(=O)OCCC(N)C(=O)O)[C@@H]2CC[C@]1(O[C@@H]1O[C@H](CO)[C@@H](O)[C@H](O)[C@H]1O[C@@H]1O[C@H](CO)[C@@H](O)[C@H](O)[C@H]1O)C3 (some centres unmarked) [VI] |  |  |  |  |  |  |  |  |  | sweet and sucrose like | 
C=C1C[C@@]23CC[C@H]4[C@@](C)(CCC[C@@]4(C)C(=O)OCC(=O)O)[C@@H]2CC[C@]1(O[C@@H]1O[C@H](CO)[C@@H](O)[C@H](O)[C@H]1O[C@@H]1O[C@H](CO)[C@@H](O)[C@H](O)[C@H]1O)C3 [VII, steviolbioside, carboxymethyl ester, sodium salt] |  |  |  |  |  |  |  |  |  | sweet | 
C=C1C[C@@]23CC[C@H]4[C@@](C)(CCC[C@@]4(C)C(=O)OCCCS(=O)(=O)O)[C@@H]2CC[C@]1(O[C@@H]1O[C@H](CO)[C@@H](O)[C@H](O)[C@H]1O[C@@H]1O[C@H](CO)[C@@H](O)[C@H](O)[C@H]1O)C3 [Example I, Steviolbioside, 3-sulfopropyl ester, potassium salt] | 360(20) | 160(10) | 4(6) % | 4(4) % | 0(0) % | 0(0) % | 92(6) % | 92/8 | 0.84(0.06) |  | taste quality ([1]; 0.0534 wt%): very sucrose-like, having negligible off-flavors; sweetness equivalent ([1]; 0.0534 wt% in distilled water): 8-9 wt% sucrose; taste of solution ([1]; 0.2 wt% in distilled water): very intense sweet taste; taste compared with saccharin and stevioside ([1]; Table II): superior to the tastes of saccharin and stevioside itself; time within which all the initial ester was consumed ([3]; 5 wt% fresh rat cecal contents, 0.25, 0.5 and 1.0 mg/ml, pH 7.4, 37° C., anaerobic, TLC and HPLC): ≤ 24 h; steviol in THF extracts (HPLC) ([3]; after 3 days, sediment and supernatant extracts): none to be detectable; steviol detected (TLC and HPLC of incubation) ([3]; rat cecal contents, 37° C.): No steviol; degradation product formed ([3]; rat cecal contents, within 24 h, TLC and HPLC): apparently only the sulfopropyl ester of steviol; sweetness in comestibles, with co-sweetener ([4]; 0.04% by weight in coffee with 0.02% saccharin or 3% sucrose): sweetness is imparted; sweetness in comestibles ([4]; 0.08% by weight in unsweetened cola, unsweetened lemonade and coffee): sweetness is imparted
C=C1C[C@@]23CC[C@H]4[C@@](C)(CCC[C@@]4(C)C(=O)OCCCCS(=O)(=O)O)[C@@H]2CC[C@]1(O[C@@H]1O[C@H](CO)[C@@H](O)[C@H](O)[C@H]1O[C@@H]1O[C@H](CO)[C@@H](O)[C@H](O)[C@H]1O)C3 [III, steviolbioside, 4-sulfobutyl ester, sodium salt] |  |  |  |  |  |  |  |  |  | sweet, like the material of Example I | 
C=C1C[C@@]23CC[C@H]4[C@@](C)(CCC[C@@]4(C)C(=O)OCCC(S(=O)(=O)O)S(=O)(=O)O)[C@@H]2CC[C@]1(O[C@@H]1O[C@H](CO)[C@@H](O)[C@H](O)[C@H]1O[C@@H]1O[C@H](CO)[C@@H](O)[C@H](O)[C@H]1O)C3 [VIII] |  |  |  |  |  |  |  |  |  |  | sweetness intensity equal to sucrose solution [1, 10]: 10-12 % sucrose; taste of solution [2, 10]: exceedingly sweet
C=C1C[C@@]23CC[C@H]4[C@@](C)(CCC[C@@]4(C)C(=O)O)[C@@H]2CC[C@]1(O)C3 [steviol] |  |  |  |  |  |  |  |  |  |  | inhibition of ATP synthetase compared with atractyligenin (ATP synthetase): even more potent inhibitor of ATP synthetase; absorption through the gastrointestinal tract wall [5]: completely absorbed; antiandrogenic effects [6]: antiandrogenic effects
C=C1C[C@@]23CC[C@H]4[C@@](C)(CCC[C@@]4(C)C(=O)OCCCS(=O)(=O)O)[C@@H]2CC[C@]1(O[C@@H]1O[C@H](CO)[C@@H](O)[C@H](O)[C@H]1O[C@@H]1O[C@H](CO)[C@@H](O)[C@H](O)[C@H]1O)C3 [II, steviolbioside, 3-sulfopropyl ester, sodium salt] |  |  |  |  |  |  |  |  |  |  | taste properties evaluated as in Part D of Example I [1, 11]: same advantageous properties; stability properties evaluated as in Part C of Example I [3, 11]: same advantageous properties; use in comestibles evaluated as in Part E of Example I [4, 11]: same advantageous properties
C=C1C[C@@]23CC[C@H]4[C@@](C)(CCC[C@@]4(C)C(=O)OC(CCC(=O)O)C(=O)O)[C@@H]2CC[C@]1(O[C@@H]1O[C@H](CO)[C@@H](O)[C@H](O)[C@H]1O[C@@H]1O[C@H](CO)[C@@H](O)[C@H](O)[C@H]1O)C3 (some centres unmarked) [V] |  |  |  |  |  |  |  |  |  | sweet | 
C=C1C[C@@]23CC[C@H]4[C@@](C)(CCC[C@@]4(C)C(=O)O[C@@H]4O[C@H](CO)[C@@H](O)[C@H](O)[C@H]4O)[C@@H]2CC[C@]1(O[C@@H]1O[C@H](CO)[C@@H](O)[C@H](O)[C@H]1O[C@@H]1O[C@H](CO)[C@@H](O)[C@H](O)[C@H]1O)C3 [Stevioside, stevioside] | 440(30) | 190(10) | 30(10) % | 8(5) % | 0(0) % | 0(0) % | 62(10) % | 62/38 | 0.94(0.06) |  | sweetness relative to sucrose [7]; 1931: about 300 times as sweet as sucrose; bitterness of taste [7]: substantial degree of bitterness; conversion to steviol in vivo [8]: largely converted to steviol in vivo; degradation to steviol [9]: essentially quantitative degradation to steviol
